Results: patent US8217048B2, “Inhibitors of serine proteases, particularly HCV NS3-NS4A protease” (Vertex Pharmaceuticals Incorporated, priority 2003, dated 2012)
pIC50, pKi: −log10 of the molar value.

Columns and labels:
[1] = tested on: Cells containing hepatitis C virus (HCV) replicon; test: HCV Replicon Cell Assay (Example 4); format: cell-based; settings: 48 h, tested according to Example 4 (cell), 50% inhibition of HCV RNA level, 48-hour incubation
Protocol: HCV Replicon Cell Assay Protocol
Cells containing hepatitis C virus (HCV) replicon were maintained in DMEM containing 10% fetal bovine serum (FBS), 0.25 mg per ml of G418, with appropriate supplements (media A).
On day 1, replicon cell monolayer was treated with a trypsin:EDTA mixture, removed, and then media A was diluted into a final concentration of 100,000 cells per ml wit. 10,000 cells in 100 ul were plated into each well of a 96-well tissue culture plate, and cultured overnight in a tissue culture incubator at 37° C.
On day 2, compounds (in 100% DMSO) were serially diluted into DMEM containing 2% FBS, 0.5% DMSO, with appropriate supplements (media B). The final concentration of DMSO was maintained at 0.5% throughout the dilution series.
Media on the replicon cell monolayer was removed, and then media B containing various concentrations of compounds was added. Media B without any compound was added to other wells as no compound controls.
Cells were incubated with compound or 0.5% DMSO in media B for 48 hours in a tissue culture incubator at 37° C. At the end of the 48-hour incubation, the media was removed, and the replicon cell monolayer was washed once with PBS and stored at −80° C. prior to RNA extraction.
Culture plates with treated replicon cell monolayers were thawed, and a fixed amount of another RNA virus, such as Bovine Viral Diarrhea Virus (BVDV) was added to cells in each well, RNA extraction reagents (such as reagents from RNeasy kits) were added to the cells immediately to avoid degradation of RNA. Total RNA was extracted according the instruction of manufacturer with modification to improve extraction efficiency and consistency. Finally, total cellular RNA, including HCV replicon RNA, was eluted and stored at −80° C. until further processing.
A Taqman real-time RT-PCR quantification assay was set up with two sets of specific primers and probe. One was for HCV and the other was for BVDV. Total RNA extractants from treated HCV replicon cells was added to the PCR reactions for quantification of both HCV and BVDV RNA in the same PCR well. Experimental failure was flagged and rejected based on the level of BVDV RNA in each well. The level of HCV RNA in each well was calculated according to a standard curve run in the same PCR plate. The percentage of inhibition or decrease of HCV RNA level due to compound treatment was calculated using the DMSO or no compound control as 0% of inhibition. The IC50 (concentration at which 50% inhibition of HCV RNA level is observed) was calculated from the titration curve of any given compound.

[2] = biological target: T1, HCV NS3-NS4A protease (Hepatitis C virus genotype 1a, UniProt P27958); test: HCV Ki Assay (enzyme, Example 5); format: biochemical; settings: Ki values, tested according to Example 5 (enzyme); 5AB substrate, tNS3 with KK4A
T1 construct: The buffer, KK4A, DTT, and tNS3 were combined
T1 sequence (P27958 1658-1711): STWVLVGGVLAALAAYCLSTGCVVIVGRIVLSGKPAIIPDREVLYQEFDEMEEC
T1 sequence (P27958 1027-1208): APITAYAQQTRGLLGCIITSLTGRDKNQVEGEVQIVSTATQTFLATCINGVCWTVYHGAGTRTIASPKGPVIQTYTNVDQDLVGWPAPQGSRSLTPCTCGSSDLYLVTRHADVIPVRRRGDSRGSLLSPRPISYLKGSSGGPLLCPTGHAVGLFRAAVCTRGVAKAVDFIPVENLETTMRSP
Protocol: HPLC Microbore Method for Separation of 5AB Substrate and Products
NH2-Glu-Asp-Val-Val-(alpha)Abu-Cys-Ser-Met-Ser-Tyr-COOH
A stock solution of 20 mM 5AB (or concentration of your choice) was made in DMSO w/0.2M DTT. This was stored in aliquots at −20 C.
Buffer: 50 mM HEPES, pH 7.8; 20% glycerol; 100 mM NaCl
Total assay volume was 100 μL
The buffer, KK4A, DTT, and tNS3 were combined; distributed 78 μL each into wells of 96 well plate. This was incubated at 30 C for ˜5-10 min.
2.5 μL of appropriate concentration of test compound was dissolved in DMSO (DMSO only for control) and added to each well. This was incubated at room temperature for 15 min.
Initiated reaction by addition of 20 μL of 250 μM 5AB substrate (25 μM concentration is equivalent or slightly lower than the Km for 5AB).
Incubated for 20 min at 30 C.
Terminated reaction by addition of 25 μL of 10% TFA
Transferred 120 μL aliquots to HPLC vials
Separated SMSY product from substrate and KK4A by the following method:
Microbore Separation Method:
Instrumentation: Agilent 1100
Column thermostated chamber G1316A
Diode array detector G1315A
Solvent A=HPLC grade water+0.1% TFA
Solvent B=HPLC grade acetonitrile+0.1% TFA
Stop time: 17 min Post-run time: 10 min.

For `CCC[C@H](NC(=O)[C@@H]1C[C@@H](Oc2ccc(OC)cc2Cl)CN1C(=O)[C@@H](NC(=O)[C@@H](NC(=O)c1cnccn1)C1CCCCC1)C(C)(C)C)C(=O)C(=O)NC1CC1` [Compound 64], the pIC50 [1] was greater than 6.30 and the pKi [2] was greater than 7.00.
For `CCC[C@H](NC(=O)[C@@H]1C[C@@H](Oc2ccc(C(=O)N3CCNCC3)cc2)CN1C(=O)[C@@H](NC(=O)[C@@H](NC(=O)c1cnccn1)C1CCCCC1)C(C)(C)C)C(=O)C(=O)NC1CC1` [Compound 71], the pIC50 [1] was less than 6.00 and the pKi [2] was 6.52 to 7.00.
With `CCC[C@H](NC(=O)[C@@H]1C[C@@H](Oc2ccc(Cl)c(Cl)c2)CN1C(=O)[C@@H](NC(=O)[C@@H](NC(=O)c1cnccn1)C1CCCCC1)C(C)(C)C)C(=O)C(=O)NC1CC1` [Compound 53] the pIC50 [1] was greater than 6.30 and the pKi [2] was greater than 7.00.
`CCC[C@H](NC(=O)C1C[C@@H](Oc2ccccc2C(F)(F)F)CN1C(=O)[C@@H](NC(=O)[C@@H](NC(=O)c1cnccn1)C1CCCCC1)C(C)(C)C)C(=O)C(=O)NC1CC1` (some centres unmarked) [Compound 6] was tested, and the pIC50 [1] was less than 6.00 and the pKi [2] was less than 6.52.
Work on `CCC[C@H](NC(=O)[C@@H]1C[C@@H](Oc2ccnc3cc(OC)ccc23)CN1C(=O)[C@@H](NC(=O)[C@@H](NC(=O)c1cnccn1)C1CCCCC1)C(C)(C)C)C(=O)C(=O)NC1CC1` [Compound 41] yielded a pIC50 [1] of less than 6.00 and a pKi [2] greater than 7.00.
With `CCC[C@H](NC(=O)C1C[C@@H](Oc2cc(Cl)ccc2Cl)CN1C(=O)[C@@H](NC(=O)[C@@H](NC(=O)c1cnccn1)C1CCCCC1)C(C)(C)C)C(=O)C(=O)NC1CC1` (some centres unmarked) [Compound 3] the pIC50 [1] was 6.00 to 6.30 and the pKi [2] was 6.52 to 7.00.
`CCC[C@H](NC(=O)[C@@H]1C[C@@H](Oc2cccc(NC(C)=O)c2)CN1C(=O)[C@@H](NC(=O)[C@@H](NC(=O)c1cnccn1)C1CCCCC1)C(C)(C)C)C(=O)C(=O)NC1CC1` [Compound 49] showed a pIC50 [1] of less than 6.00 and a pKi [2] greater than 7.00.
Work on `CCC[C@H](NC(=O)[C@@H]1C[C@@H](Oc2ccc(NC(C)=O)cc2)CN1C(=O)[C@@H](NC(=O)[C@@H](NC(=O)c1cnccn1)C1CCCCC1)C(C)(C)C)C(=O)C(=O)NC1CC1` [Compound 51] yielded a pIC50 [1] of less than 6.00 and a pKi [2] greater than 7.00.
For `CCC[C@H](NC(=O)[C@@H]1C[C@@H](Oc2ccc(C(=O)OC(C)C)cc2)CN1C(=O)[C@@H](NC(=O)[C@@H](NC(=O)c1cnccn1)C1CCCCC1)C(C)(C)C)C(=O)C(=O)NC1CC1` [Compound 61], the pIC50 [1] was greater than 6.30 and the pKi [2] was greater than 7.00.
`CCC[C@H](NC(=O)[C@@H]1C[C@@H](Oc2cccc(OC(F)(F)F)c2)CN1C(=O)[C@@H](NC(=O)[C@@H](NC(=O)c1cnccn1)C1CCCCC1)C(C)(C)C)C(=O)C(=O)NC1CC1` [Compound 16] showed a pIC50 [1] of 6.00 to 6.30 and a pKi [2] of 6.52 to 7.00.
In the case of `CCC[C@H](NC(=O)[C@@H]1C[C@@H](Oc2ccc(F)c(F)c2)CN1C(=O)[C@@H](NC(=O)[C@@H](NC(=O)c1cnccn1)C1CCCCC1)C(C)(C)C)C(=O)C(=O)NC1CC1` [Compound 54], the pIC50 [1] was greater than 6.30 and the pKi [2] was greater than 7.00.
Work on `CCC[C@H](NC(=O)[C@@H]1C[C@@H](Oc2ccc(-c3ccccc3)cc2)CN1C(=O)[C@@H](NC(=O)[C@@H](NC(=O)c1cnccn1)C1CCCCC1)C(C)(C)C)C(=O)C(=O)NC1CC1` [Compound 19] yielded a pIC50 [1] greater than 6.30 and a pKi [2] greater than 7.00.
`CCC[C@H](NC(=O)[C@@H]1C[C@@H](Oc2cccc(-c3ccccc3)c2)CN1C(=O)[C@@H](NC(=O)[C@@H](NC(=O)c1cnccn1)C1CCCCC1)C(C)(C)C)C(=O)C(=O)NC1CC1` [Compound 15] gave a pIC50 [1] greater than 6.30 and a pKi [2] greater than 7.00.
With `CCC[C@H](NC(=O)C1C[C@@H](Oc2cccc(F)c2F)CN1C(=O)[C@@H](NC(=O)[C@@H](NC(=O)c1cnccn1)C1CCCCC1)C(C)(C)C)C(=O)C(=O)NC1CC1` (some centres unmarked) [Compound 7] the pIC50 [1] was greater than 6.30 and the pKi [2] was 6.52 to 7.00.
`CCCC(NC(=O)[C@@H]1C[C@@H](Oc2ccccc2)CN1C(=O)[C@@H](NC(=O)[C@@H](NC(=O)c1cnccn1)C1CCCCC1)C(C)(C)C)C(=O)C(=O)NC1CC1` (some centres unmarked) [Compound 34] was tested, and the pIC50 [1] was greater than 6.30 and the pKi [2] was 6.52 to 7.00.
`CCC[C@H](NC(=O)C1C[C@@H](Oc2ccc(Cl)cc2Cl)CN1C(=O)[C@@H](NC(=O)[C@@H](NC(=O)c1cnccn1)C1CCCCC1)C(C)(C)C)C(=O)C(=O)NC1CC1` (some centres unmarked) [Compound 2] gave a pIC50 [1] of 6.00 to 6.30 and a pKi [2] of 6.52 to 7.00.
`CCC[C@H](NC(=O)C1C[C@@H](Oc2c(F)cccc2F)CN1C(=O)[C@@H](NC(=O)[C@@H](NC(=O)c1cnccn1)C1CCCCC1)C(C)(C)C)C(=O)C(=O)NC1CC1` (some centres unmarked) [Compound 10] was tested, and the pIC50 [1] was 6.00 to 6.30 and the pKi [2] was 6.52 to 7.00.
For `CCC[C@H](NC(=O)[C@@H]1C[C@@H](Oc2ccnc3ccccc23)CN1C(=O)[C@@H](NC(=O)[C@@H](NC(=O)c1cnccn1)C1CCCCC1)C(C)(C)C)C(=O)C(=O)NC1CC1` [Compound 39], the pIC50 [1] was greater than 6.30 and the pKi [2] was greater than 7.00.
`CCC[C@H](NC(=O)[C@@H]1C[C@@H](Oc2ncnc3ccccc23)CN1C(=O)[C@@H](NC(=O)[C@@H](NC(=O)c1cnccn1)C1CCCCC1)C(C)(C)C)C(=O)C(=O)NC1CC1` [Compound 42] was tested, and the pIC50 [1] was greater than 6.30 and the pKi [2] was greater than 7.00.
`CCC[C@H](NC(=O)C1C[C@@H](Oc2cc(F)ccc2F)CN1C(=O)[C@@H](NC(=O)[C@@H](NC(=O)c1cnccn1)C1CCCCC1)C(C)(C)C)C(=O)C(=O)NC1CC1` (some centres unmarked) [Compound 8] was tested, and the pIC50 [1] was 6.00 to 6.30 and the pKi [2] was 6.52 to 7.00.
For `CCC[C@H](NC(=O)[C@@H]1C[C@@H](Oc2ccc(Cl)cn2)CN1C(=O)[C@@H](NC(=O)[C@@H](NC(=O)c1cnccn1)C1CCCCC1)C(C)(C)C)C(=O)C(=O)NC1CC1` [Compound 59, Pyrazine-2-carboxylic acid ({1-[4-(5-chloro-pyridin-2-yloxy)-2-(1-cyclopropylaminooxalyl-butylcarbamoyl)-pyrrolidine-1-carbonyl]-2,2-dimethyl-propylcarbamoyl}-cyclohexyl-methyl)-amide], the pIC50 [1] was greater than 6.30 and the pKi [2] was greater than 7.00.
For `CCC[C@H](NC(=O)[C@@H]1C[C@@H](Oc2cc(F)cc(F)c2)CN1C(=O)[C@@H](NC(=O)[C@@H](NC(=O)c1cnccn1)C1CCCCC1)C(C)(C)C)C(=O)C(=O)NC1CC1` [Compound 55], the pIC50 [1] was greater than 6.30 and the pKi [2] was 6.52 to 7.00.
`CCC[C@H](NC(=O)[C@@H]1C[C@@H](Oc2ccc(Cl)c3ccccc23)CN1C(=O)[C@@H](NC(=O)[C@@H](NC(=O)c1cnccn1)C1CCCCC1)C(C)(C)C)C(=O)C(=O)NC1CC1` [Compound 40] was tested, and the pIC50 [1] was greater than 6.30 and the pKi [2] was greater than 7.00.
`CCCC(NC(=O)C1CC(Oc2cccc(Cl)c2Cl)CN1C(=O)C(NC(=O)C(NC(=O)c1cnccn1)C1CCCCC1)C(C)(C)C)C(=O)C(=O)NC1CC1` (centres unmarked) [Compound 5] showed a pIC50 [1] of 6.00 to 6.30 and a pKi [2] of 6.52 to 7.00.
For `CCC[C@H](NC(=O)[C@@H]1C[C@@H](Oc2ccc([N+](=O)[O-])cn2)CN1C(=O)[C@@H](NC(=O)[C@@H](NC(=O)c1cnccn1)C1CCCCC1)C(C)(C)C)C(=O)C(=O)NC1CC1` [Compound 26], the pIC50 [1] was greater than 6.30 and the pKi [2] was 6.52 to 7.00.
For `CCC[C@H](NC(=O)[C@@H]1C[C@@H](Oc2ccc(C(F)(F)F)cc2)CN1C(=O)[C@@H](NC(=O)[C@@H](NC(=O)c1cnccn1)C1CCCCC1)C(C)(C)C)C(=O)C(=O)NC1CC1` [Compound 13], the pIC50 [1] was greater than 6.30 and the pKi [2] was 6.52 to 7.00.
For `CCC[C@H](NC(=O)[C@@H]1C[C@@H](Oc2nc(C(F)(F)F)nc3ccccc23)CN1C(=O)[C@@H](NC(=O)[C@@H](NC(=O)c1cnccn1)C1CCCCC1)C(C)(C)C)C(=O)C(=O)NC1CC1` [Compound 60], the pIC50 [1] was less than 6.00 and the pKi [2] was 6.52 to 7.00.
Compound `CCC[C@H](NC(=O)[C@@H]1C[C@@H](Oc2cccc(F)c2)CN1C(=O)[C@@H](NC(=O)[C@@H](NC(=O)c1cnccn1)C1CCCCC1)C(C)(C)C)C(=O)C(=O)NC1CC1` [Compound 18] has a pIC50 [1] greater than 6.30 and a pKi [2] of 6.52 to 7.00.
